Conditions in all cases: Compound concentration 10 µM
Test [1] has as its target Translocator protein (Homo sapiens) (UniProt P30536).
Description: PDSP Primary Binding target: TSPO - Compounds are tested at 10 uM concentration, plate are incubated at room temperature in the dark for 90 minutes. Reaction are stopped by vacuum filtration onto 0.3% polyethyleneimine soaked filter mats using Filtermate harvester. Scintilation cocktail is then melted onto microwave-dried filters on a hot plate and the radio activity is counted in Microbia counter.
In test [2] the target is Sigma intracellular receptor 2 (Homo sapiens) (UniProt Q5BJF2).
Description: PDSP Primary Binding target: TMEM97 - Compounds are tested at 10 uM concentration, plate are incubated at room temperature in the dark for 90 minutes. Reaction are stopped by vacuum filtration onto 0.3% polyethyleneimine soaked filter mats using Filtermate harvester. Scintilation cocktail is then melted onto microwave-dried filters on a hot plate and the radio activity is counted in Microbia counter.
The target of test [3] is T1, Muscarinic acetylcholine receptor M1 (Homo sapiens) (UniProt P11229).
T1 sequence (whole entry): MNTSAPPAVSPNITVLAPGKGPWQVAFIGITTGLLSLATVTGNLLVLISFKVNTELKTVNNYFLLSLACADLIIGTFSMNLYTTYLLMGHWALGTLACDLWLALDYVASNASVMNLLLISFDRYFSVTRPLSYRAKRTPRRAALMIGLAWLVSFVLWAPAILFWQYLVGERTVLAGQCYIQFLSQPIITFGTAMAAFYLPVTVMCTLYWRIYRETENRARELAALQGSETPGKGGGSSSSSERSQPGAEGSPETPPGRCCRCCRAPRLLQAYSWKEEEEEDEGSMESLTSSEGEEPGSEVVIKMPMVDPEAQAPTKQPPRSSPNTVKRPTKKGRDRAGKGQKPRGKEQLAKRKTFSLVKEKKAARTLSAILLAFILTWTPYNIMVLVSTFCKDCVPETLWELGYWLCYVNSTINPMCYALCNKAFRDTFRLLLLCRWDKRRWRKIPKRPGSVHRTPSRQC
Description: PDSP Primary Binding target: CHRM1 - Compounds are tested at 10 uM concentration, plate are incubated at room temperature in the dark for 90 minutes. Reaction are stopped by vacuum filtration onto 0.3% polyethyleneimine soaked filter mats using Filtermate harvester. Scintilation cocktail is then melted onto microwave-dried filters on a hot plate and the radio activity is counted in Microbia counter.

Test [4] deals with 5-hydroxytryptamine receptor 1D (Homo sapiens) (UniProt P28221).
Description: PDSP Primary Binding target: HTR1D - Compounds are tested at 10 uM concentration, plate are incubated at room temperature in the dark for 90 minutes. Reaction are stopped by vacuum filtration onto 0.3% polyethyleneimine soaked filter mats using Filtermate harvester. Scintilation cocktail is then melted onto microwave-dried filters on a hot plate and the radio activity is counted in Microbia counter.
In test [5] the target is Sodium-dependent dopamine transporter (Homo sapiens) (UniProt Q01959).
Description: PDSP Primary Binding target: SLC6A3 - Compounds are tested at 10 uM concentration, plate are incubated at room temperature in the dark for 90 minutes. Reaction are stopped by vacuum filtration onto 0.3% polyethyleneimine soaked filter mats using Filtermate harvester. Scintilation cocktail is then melted onto microwave-dried filters on a hot plate and the radio activity is counted in Microbia counter.
Test [6] addresses T2, Muscarinic acetylcholine receptor M5 (Homo sapiens) (UniProt P08912).
T2 sequence (whole entry): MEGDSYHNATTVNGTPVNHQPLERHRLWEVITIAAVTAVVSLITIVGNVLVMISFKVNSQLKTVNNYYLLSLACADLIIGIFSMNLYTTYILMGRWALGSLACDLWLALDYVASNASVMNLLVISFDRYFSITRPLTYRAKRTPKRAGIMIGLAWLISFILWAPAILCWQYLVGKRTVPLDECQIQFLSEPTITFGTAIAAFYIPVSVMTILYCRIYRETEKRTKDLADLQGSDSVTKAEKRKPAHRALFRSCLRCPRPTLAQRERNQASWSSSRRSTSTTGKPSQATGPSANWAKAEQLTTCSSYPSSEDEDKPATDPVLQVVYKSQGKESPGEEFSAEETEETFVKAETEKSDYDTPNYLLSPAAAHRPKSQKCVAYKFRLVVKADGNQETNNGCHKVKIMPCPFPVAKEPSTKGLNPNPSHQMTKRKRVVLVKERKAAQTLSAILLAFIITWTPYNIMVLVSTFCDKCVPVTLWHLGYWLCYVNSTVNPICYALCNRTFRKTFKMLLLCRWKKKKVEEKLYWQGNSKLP
Description: PDSP Primary Binding target: CHRM5 - Compounds are tested at 10 uM concentration, plate are incubated at room temperature in the dark for 90 minutes. Reaction are stopped by vacuum filtration onto 0.3% polyethyleneimine soaked filter mats using Filtermate harvester. Scintilation cocktail is then melted onto microwave-dried filters on a hot plate and the radio activity is counted in Microbia counter.

For test [7], the target named is D(1A) dopamine receptor (Homo sapiens) (UniProt P21728).
Description: PDSP Primary Binding target: DRD1 - Compounds are tested at 10 uM concentration, plate are incubated at room temperature in the dark for 90 minutes. Reaction are stopped by vacuum filtration onto 0.3% polyethyleneimine soaked filter mats using Filtermate harvester. Scintilation cocktail is then melted onto microwave-dried filters on a hot plate and the radio activity is counted in Microbia counter.
For test [8], the target named is D(2) dopamine receptor (Homo sapiens) (UniProt P14416).
Description: PDSP Primary Binding target: DRD2 - Compounds are tested at 10 uM concentration, plate are incubated at room temperature in the dark for 90 minutes. Reaction are stopped by vacuum filtration onto 0.3% polyethyleneimine soaked filter mats using Filtermate harvester. Scintilation cocktail is then melted onto microwave-dried filters on a hot plate and the radio activity is counted in Microbia counter.
The target in test [9] is 5-hydroxytryptamine receptor 1B (Homo sapiens) (UniProt P28222).
Description: PDSP Primary Binding target: HTR1B - Compounds are tested at 10 uM concentration, plate are incubated at room temperature in the dark for 90 minutes. Reaction are stopped by vacuum filtration onto 0.3% polyethyleneimine soaked filter mats using Filtermate harvester. Scintilation cocktail is then melted onto microwave-dried filters on a hot plate and the radio activity is counted in Microbia counter.
Test [10] concerns the target T3, Alpha-2B adrenergic receptor (Homo sapiens) (UniProt P18089).
T3 sequence (whole entry): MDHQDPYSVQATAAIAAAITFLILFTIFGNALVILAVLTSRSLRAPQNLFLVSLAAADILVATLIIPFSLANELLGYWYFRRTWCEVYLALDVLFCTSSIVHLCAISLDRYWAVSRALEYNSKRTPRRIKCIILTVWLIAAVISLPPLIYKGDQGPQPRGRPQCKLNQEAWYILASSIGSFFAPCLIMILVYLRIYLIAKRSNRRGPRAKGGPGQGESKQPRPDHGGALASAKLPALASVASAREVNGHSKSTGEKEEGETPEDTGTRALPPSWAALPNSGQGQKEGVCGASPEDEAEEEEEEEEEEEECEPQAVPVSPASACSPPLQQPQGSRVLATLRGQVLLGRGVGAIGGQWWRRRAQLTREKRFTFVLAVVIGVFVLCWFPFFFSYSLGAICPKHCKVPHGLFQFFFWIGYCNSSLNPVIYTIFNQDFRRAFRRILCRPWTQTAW
Description: PDSP Primary Binding target: ADRA2B - Compounds are tested at 10 uM concentration, plate are incubated at room temperature in the dark for 90 minutes. Reaction are stopped by vacuum filtration onto 0.3% polyethyleneimine soaked filter mats using Filtermate harvester. Scintilation cocktail is then melted onto microwave-dried filters on a hot plate and the radio activity is counted in Microbia counter.

Test [11] has as its target Beta-1 adrenergic receptor (Homo sapiens) (UniProt P08588).
Description: PDSP Primary Binding target: ADRB1 - Compounds are tested at 10 uM concentration, plate are incubated at room temperature in the dark for 90 minutes. Reaction are stopped by vacuum filtration onto 0.3% polyethyleneimine soaked filter mats using Filtermate harvester. Scintilation cocktail is then melted onto microwave-dried filters on a hot plate and the radio activity is counted in Microbia counter.
Test [12] deals with 5-hydroxytryptamine receptor 2B (Homo sapiens) (UniProt P41595).
Description: PDSP Primary Binding target: HTR2B - Compounds are tested at 10 uM concentration, plate are incubated at room temperature in the dark for 90 minutes. Reaction are stopped by vacuum filtration onto 0.3% polyethyleneimine soaked filter mats using Filtermate harvester. Scintilation cocktail is then melted onto microwave-dried filters on a hot plate and the radio activity is counted in Microbia counter.
Test [13] concerns the target 5-hydroxytryptamine receptor 2A (Homo sapiens) (UniProt P28223).
Description: PDSP Primary Binding target: HTR2A - Compounds are tested at 10 uM concentration, plate are incubated at room temperature in the dark for 90 minutes. Reaction are stopped by vacuum filtration onto 0.3% polyethyleneimine soaked filter mats using Filtermate harvester. Scintilation cocktail is then melted onto microwave-dried filters on a hot plate and the radio activity is counted in Microbia counter.
The target of test [14] is Mu-type opioid receptor (Homo sapiens) (UniProt P35372).
Description: PDSP Primary Binding target: OPRM1 - Compounds are tested at 10 uM concentration, plate are incubated at room temperature in the dark for 90 minutes. Reaction are stopped by vacuum filtration onto 0.3% polyethyleneimine soaked filter mats using Filtermate harvester. Scintilation cocktail is then melted onto microwave-dried filters on a hot plate and the radio activity is counted in Microbia counter.
The target in test [15] is D(1B) dopamine receptor (Homo sapiens) (UniProt P21918).
Description: PDSP Primary Binding target: DRD5 - Compounds are tested at 10 uM concentration, plate are incubated at room temperature in the dark for 90 minutes. Reaction are stopped by vacuum filtration onto 0.3% polyethyleneimine soaked filter mats using Filtermate harvester. Scintilation cocktail is then melted onto microwave-dried filters on a hot plate and the radio activity is counted in Microbia counter.
In test [16] the target is Beta-2 adrenergic receptor (Homo sapiens) (UniProt P07550).
Description: PDSP Primary Binding target: ADRB2 - Compounds are tested at 10 uM concentration, plate are incubated at room temperature in the dark for 90 minutes. Reaction are stopped by vacuum filtration onto 0.3% polyethyleneimine soaked filter mats using Filtermate harvester. Scintilation cocktail is then melted onto microwave-dried filters on a hot plate and the radio activity is counted in Microbia counter.
For test [17], the target named is Sigma non-opioid intracellular receptor 1 (Homo sapiens) (UniProt Q99720).
Description: PDSP Primary Binding target: SIGMAR1 - Compounds are tested at 10 uM concentration, plate are incubated at room temperature in the dark for 90 minutes. Reaction are stopped by vacuum filtration onto 0.3% polyethyleneimine soaked filter mats using Filtermate harvester. Scintilation cocktail is then melted onto microwave-dried filters on a hot plate and the radio activity is counted in Microbia counter.
Test [18] deals with Kappa-type opioid receptor (Homo sapiens) (UniProt P41145).
Description: PDSP Primary Binding target: OPRK1 - Compounds are tested at 10 uM concentration, plate are incubated at room temperature in the dark for 90 minutes. Reaction are stopped by vacuum filtration onto 0.3% polyethyleneimine soaked filter mats using Filtermate harvester. Scintilation cocktail is then melted onto microwave-dried filters on a hot plate and the radio activity is counted in Microbia counter.
The target in test [19] is T4, 5-hydroxytryptamine receptor 2C (Homo sapiens) (UniProt P28335).
T4 sequence (whole entry): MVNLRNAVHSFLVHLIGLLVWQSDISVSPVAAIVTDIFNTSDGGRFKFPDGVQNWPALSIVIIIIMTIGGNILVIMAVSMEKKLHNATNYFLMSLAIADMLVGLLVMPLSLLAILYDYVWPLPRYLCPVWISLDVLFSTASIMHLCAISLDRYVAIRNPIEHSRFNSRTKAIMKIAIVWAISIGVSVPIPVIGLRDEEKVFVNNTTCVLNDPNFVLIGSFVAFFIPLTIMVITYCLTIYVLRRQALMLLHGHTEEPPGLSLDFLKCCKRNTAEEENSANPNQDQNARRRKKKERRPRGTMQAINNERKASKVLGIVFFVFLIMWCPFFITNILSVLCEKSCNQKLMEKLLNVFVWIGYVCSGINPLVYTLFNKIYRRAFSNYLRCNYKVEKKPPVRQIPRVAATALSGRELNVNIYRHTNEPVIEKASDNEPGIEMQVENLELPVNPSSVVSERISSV
Description: PDSP Primary Binding target: HTR2C - Compounds are tested at 10 uM concentration, plate are incubated at room temperature in the dark for 90 minutes. Reaction are stopped by vacuum filtration onto 0.3% polyethyleneimine soaked filter mats using Filtermate harvester. Scintilation cocktail is then melted onto microwave-dried filters on a hot plate and the radio activity is counted in Microbia counter.

Here are results for seven molecules from ChEMBL document CHEMBL5442219.

Structures are written as SMILES.

5-hydroxytryptamine receptor 2A (Homo sapiens), sequence (P28223 whole entry): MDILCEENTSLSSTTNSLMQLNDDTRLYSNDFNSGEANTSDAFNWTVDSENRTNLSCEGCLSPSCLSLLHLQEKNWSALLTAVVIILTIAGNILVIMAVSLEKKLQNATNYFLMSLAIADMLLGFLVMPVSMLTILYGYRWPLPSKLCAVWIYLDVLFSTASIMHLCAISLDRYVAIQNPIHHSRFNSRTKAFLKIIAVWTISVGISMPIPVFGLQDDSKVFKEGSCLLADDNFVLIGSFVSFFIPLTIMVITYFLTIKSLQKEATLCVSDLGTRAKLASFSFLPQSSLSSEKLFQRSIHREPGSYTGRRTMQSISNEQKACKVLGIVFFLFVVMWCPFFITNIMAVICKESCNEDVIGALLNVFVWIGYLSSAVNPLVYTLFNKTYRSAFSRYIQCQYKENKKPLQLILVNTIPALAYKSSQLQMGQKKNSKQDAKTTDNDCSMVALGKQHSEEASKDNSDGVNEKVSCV
Sigma non-opioid intracellular receptor 1 (Homo sapiens), sequence (Q99720 whole entry): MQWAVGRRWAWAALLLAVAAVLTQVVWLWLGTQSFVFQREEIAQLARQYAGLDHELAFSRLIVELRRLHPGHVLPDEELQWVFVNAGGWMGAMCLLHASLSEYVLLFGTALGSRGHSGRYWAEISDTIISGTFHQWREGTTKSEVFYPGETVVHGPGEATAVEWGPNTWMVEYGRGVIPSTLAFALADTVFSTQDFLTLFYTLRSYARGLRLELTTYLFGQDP
Sigma intracellular receptor 2 (Homo sapiens), sequence (Q5BJF2 whole entry): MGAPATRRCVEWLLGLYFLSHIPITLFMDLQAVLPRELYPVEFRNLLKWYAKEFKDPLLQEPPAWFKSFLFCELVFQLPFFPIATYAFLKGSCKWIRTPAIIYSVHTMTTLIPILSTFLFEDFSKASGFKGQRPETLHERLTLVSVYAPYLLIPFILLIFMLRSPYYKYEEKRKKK
D(2) dopamine receptor (Homo sapiens), sequence (P14416 whole entry): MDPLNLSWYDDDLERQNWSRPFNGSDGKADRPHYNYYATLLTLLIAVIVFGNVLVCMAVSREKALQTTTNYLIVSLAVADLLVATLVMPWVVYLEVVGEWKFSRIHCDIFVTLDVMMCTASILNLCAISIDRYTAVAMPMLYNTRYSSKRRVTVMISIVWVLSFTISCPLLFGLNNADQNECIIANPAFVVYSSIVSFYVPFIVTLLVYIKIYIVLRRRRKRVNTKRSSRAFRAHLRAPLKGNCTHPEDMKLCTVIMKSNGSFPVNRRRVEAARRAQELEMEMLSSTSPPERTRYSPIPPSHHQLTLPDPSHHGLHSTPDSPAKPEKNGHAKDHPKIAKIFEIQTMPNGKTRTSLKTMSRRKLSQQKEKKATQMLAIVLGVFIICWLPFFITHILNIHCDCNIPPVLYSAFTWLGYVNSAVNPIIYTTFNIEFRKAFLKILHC
Translocator protein (Homo sapiens), sequence (P30536 whole entry): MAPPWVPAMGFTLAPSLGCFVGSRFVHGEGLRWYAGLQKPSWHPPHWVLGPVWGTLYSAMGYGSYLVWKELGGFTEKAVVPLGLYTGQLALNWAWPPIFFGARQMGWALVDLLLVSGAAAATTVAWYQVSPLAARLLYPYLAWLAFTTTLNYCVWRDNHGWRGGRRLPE
Kappa-type opioid receptor (Homo sapiens), sequence (P41145 whole entry): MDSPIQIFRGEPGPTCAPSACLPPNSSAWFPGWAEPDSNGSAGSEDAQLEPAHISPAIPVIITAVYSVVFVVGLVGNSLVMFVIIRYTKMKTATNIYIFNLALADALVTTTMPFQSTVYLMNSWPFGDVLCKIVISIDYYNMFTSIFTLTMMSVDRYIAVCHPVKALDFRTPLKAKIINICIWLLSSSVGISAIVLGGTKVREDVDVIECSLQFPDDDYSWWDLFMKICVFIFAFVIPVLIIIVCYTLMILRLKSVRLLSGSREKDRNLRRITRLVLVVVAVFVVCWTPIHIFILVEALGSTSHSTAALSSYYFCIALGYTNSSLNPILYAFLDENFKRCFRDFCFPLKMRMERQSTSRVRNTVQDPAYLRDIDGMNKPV
5-hydroxytryptamine receptor 1D (Homo sapiens), sequence (P28221 whole entry): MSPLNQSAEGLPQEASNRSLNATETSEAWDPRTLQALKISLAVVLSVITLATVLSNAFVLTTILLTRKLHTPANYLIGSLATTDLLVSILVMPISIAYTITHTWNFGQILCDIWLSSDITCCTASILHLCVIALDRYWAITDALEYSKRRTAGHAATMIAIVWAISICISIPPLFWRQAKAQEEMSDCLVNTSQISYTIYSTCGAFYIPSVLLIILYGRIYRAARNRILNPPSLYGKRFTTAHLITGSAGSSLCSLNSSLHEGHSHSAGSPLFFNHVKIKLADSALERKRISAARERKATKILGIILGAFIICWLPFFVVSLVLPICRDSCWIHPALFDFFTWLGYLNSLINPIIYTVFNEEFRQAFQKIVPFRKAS
Sodium-dependent dopamine transporter (Homo sapiens), sequence (Q01959 whole entry): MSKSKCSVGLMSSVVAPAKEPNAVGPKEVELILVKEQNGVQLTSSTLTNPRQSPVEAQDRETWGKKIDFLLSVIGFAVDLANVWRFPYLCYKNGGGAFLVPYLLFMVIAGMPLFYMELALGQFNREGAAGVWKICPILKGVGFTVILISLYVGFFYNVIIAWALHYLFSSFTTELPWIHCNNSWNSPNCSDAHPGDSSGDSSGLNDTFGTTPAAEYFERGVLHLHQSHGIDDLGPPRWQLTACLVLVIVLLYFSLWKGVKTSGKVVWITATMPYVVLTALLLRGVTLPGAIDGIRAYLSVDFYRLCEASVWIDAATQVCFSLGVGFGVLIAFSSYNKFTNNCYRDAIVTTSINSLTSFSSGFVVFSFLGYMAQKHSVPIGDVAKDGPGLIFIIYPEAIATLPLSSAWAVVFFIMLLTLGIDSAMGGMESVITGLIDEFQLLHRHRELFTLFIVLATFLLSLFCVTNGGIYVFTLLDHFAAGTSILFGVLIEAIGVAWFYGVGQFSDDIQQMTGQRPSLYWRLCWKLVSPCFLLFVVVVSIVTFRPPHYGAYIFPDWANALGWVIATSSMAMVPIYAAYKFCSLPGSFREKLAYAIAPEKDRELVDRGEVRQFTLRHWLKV
5-hydroxytryptamine receptor 1B (Homo sapiens), sequence (P28222 whole entry): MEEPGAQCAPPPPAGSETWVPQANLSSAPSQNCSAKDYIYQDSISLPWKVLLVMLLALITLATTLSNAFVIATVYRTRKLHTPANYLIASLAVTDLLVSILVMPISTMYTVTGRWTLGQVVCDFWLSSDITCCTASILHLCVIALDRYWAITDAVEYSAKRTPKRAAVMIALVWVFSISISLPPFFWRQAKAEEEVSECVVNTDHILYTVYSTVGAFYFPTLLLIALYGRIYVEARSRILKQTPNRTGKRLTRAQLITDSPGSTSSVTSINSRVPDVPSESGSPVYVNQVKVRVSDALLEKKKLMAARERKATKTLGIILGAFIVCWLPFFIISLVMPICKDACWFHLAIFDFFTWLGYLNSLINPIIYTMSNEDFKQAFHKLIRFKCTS
D(1A) dopamine receptor (Homo sapiens), sequence (P21728 whole entry): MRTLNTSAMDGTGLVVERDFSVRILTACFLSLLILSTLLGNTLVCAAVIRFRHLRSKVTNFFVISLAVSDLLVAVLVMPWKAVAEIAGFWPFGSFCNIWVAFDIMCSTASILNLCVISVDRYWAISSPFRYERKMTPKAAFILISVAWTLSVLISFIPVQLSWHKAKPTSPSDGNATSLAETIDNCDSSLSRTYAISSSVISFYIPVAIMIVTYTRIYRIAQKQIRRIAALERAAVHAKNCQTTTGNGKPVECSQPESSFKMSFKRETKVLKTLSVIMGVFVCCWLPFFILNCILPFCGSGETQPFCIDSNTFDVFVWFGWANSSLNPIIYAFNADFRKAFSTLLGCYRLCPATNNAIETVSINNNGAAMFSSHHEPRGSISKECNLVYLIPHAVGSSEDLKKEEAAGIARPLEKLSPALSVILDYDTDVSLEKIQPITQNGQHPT
Beta-1 adrenergic receptor (Homo sapiens), sequence (P08588 whole entry, looked up): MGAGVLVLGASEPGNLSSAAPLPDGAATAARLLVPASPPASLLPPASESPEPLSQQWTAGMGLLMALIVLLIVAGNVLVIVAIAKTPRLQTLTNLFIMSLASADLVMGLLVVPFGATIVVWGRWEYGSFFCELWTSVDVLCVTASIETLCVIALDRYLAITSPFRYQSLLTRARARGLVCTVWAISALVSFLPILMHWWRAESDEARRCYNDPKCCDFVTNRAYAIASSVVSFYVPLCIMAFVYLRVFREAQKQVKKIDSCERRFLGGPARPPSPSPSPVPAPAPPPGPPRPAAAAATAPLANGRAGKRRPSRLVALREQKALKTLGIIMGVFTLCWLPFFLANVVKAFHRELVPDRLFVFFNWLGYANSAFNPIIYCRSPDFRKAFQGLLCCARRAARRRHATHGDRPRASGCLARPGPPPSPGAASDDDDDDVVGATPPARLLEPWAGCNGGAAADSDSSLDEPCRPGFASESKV
5-hydroxytryptamine receptor 2B (Homo sapiens), sequence (P41595 whole entry): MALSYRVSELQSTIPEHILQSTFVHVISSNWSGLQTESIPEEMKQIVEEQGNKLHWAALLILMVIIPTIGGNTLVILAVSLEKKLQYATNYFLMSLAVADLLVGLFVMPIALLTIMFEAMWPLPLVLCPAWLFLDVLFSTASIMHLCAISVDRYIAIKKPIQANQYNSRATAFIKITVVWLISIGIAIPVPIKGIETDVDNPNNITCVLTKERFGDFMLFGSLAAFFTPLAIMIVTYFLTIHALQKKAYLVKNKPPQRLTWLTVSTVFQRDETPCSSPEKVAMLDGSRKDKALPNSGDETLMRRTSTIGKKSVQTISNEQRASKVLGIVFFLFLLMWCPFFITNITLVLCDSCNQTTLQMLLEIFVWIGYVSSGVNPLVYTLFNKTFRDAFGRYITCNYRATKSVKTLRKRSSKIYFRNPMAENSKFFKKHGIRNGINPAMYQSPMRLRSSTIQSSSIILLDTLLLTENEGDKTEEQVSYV

Broadly, the inhibition is the drop in the measured response relative to a control, in per cent. For the molecule `CCN(CC)CCCCC1CCN(CC(=O)N2c3ccccc3C(=O)Nc3cccnc32)CC1`, the inhibition was -2.79% in test [1]; 82.1% in [2]; 89.1% in [3]; 33.2% in test [4]; 28.1% in [5]; 72.4% in test [6]. Also, the inhibition in test [7] was 102%; in [8] it was 2.83%; in test [9], 14.9%; in test [10], -3.71%; in test [11] it was 4.03%; in [12], 13.9%. For the same molecule, the inhibition was 9.83% in test [13], 10.4% in test [14], 82.5% in test [15] and 5.55% in test [16].
Turning to `S=C(NCCCc1c[nH]cn1)NCCCN(Cc1ccc(Cl)c(Cl)c1)c1ccc(Br)cn1`, the inhibition in [1] is 30.9%; in test [2], 97.7%; in [3], 60.7%; in [4] it was 149%; in test [5], 94.8%; in [6], 87.6%. In addition, the inhibition is 61.5% in [7]; 17.1% in test [8]; 93.3% in [9]; 94.8% in test [10]; 49.2% in test [11]; 94.5% in [12]. The inhibition was 85.2% in test [13]; 28.7% in test [14]; 1.54% in [17]; 64.9% in [18]; 51.4% in test [15]; 40% in test [16]. Moreover, the inhibition in [19] is 100%.
As to `Cc1nc(-c2ccc(-c3ccc(C(=O)N4CCc5cc6c(cc54)C4(CCN(C)CC4)CO6)cc3)c(C)c2)no1`, the inhibition is 24.4% in test [1]; 95.4% in [2]; 66.4% in [3]; 90.9% in [4]; 70.2% in test [5]; 93.6% in test [6]. Besides, the inhibition in test [7] is 53.5%; in test [8] it was 29%; in test [9], 95.1%; in [10] it was 69.5%; in [11], -1.95%; in [12], 88.9%. The inhibition in [13] is 67.6%; in test [14], -2.77%; in [17], 75.2%; in [15], 57.1%; in test [16] it was 10.4%; in [19], 85.3%.
`CN1C(=O)[C@@H](NC(=O)c2cc3ccccc3[nH]2)N=C(c2ccccc2)c2ccccc21`: the inhibition in test [1] was 59.1%; in test [2] it was 8.74%; in test [3], 5.19%; in [4], 23.2%; in test [5] it was 42.1%; in [6], -5.02%. In addition, the inhibition was 7.2% in test [7]; 4.63% in [8]; 27.2% in test [9]; 34.7% in test [10]; 13.8% in test [11]; 78.4% in test [12]. The inhibition was 19.7% in test [13]; 5.76% in [14]; 30.7% in test [18]; -2.85% in test [15]; 4.31% in test [16]; 16.1% in test [19].
As to `CCCn1c(=O)c2[nH]c(-c3cnn(Cc4cccc(C(F)(F)F)c4)c3)nc2n(CC)c1=O`, the inhibition in test [1] is 14.7%; in test [2], 18%; in test [3], -6.12%; in test [4] it was 10.2%; in test [5], 45.8%; in [6], -2.1%. In addition, the inhibition in [7] is 5.66%; in [8], 32.5%; in test [9], 13.9%; in [10] it was 11%; in test [11], -6.47%; in test [12], 35.7%. The inhibition in test [14] is -6.55%; in [17], 43.2%; in [18], -2.72%; in [15], -3.39%; in [16], -2.75%.
Consider `NC[C@@H]1O[C@H](C23CC4CC(CC(C4)C2)C3)Cc2c1ccc(O)c2O`, for which the inhibition in [1] was -5.61%; in [2], 81.7%; in test [3], -5.8%; in test [4] it was 43.5%; in test [5] it was 68.4%; in test [6], 29.6%. The inhibition in [7] was 100%; in test [8] it was 21.6%; in [9], 22.6%; in test [10] it was 64.3%; in [11] it was -6.91%; in test [12], 48.1%. The inhibition in test [13] is 3.87%; in [17], 48.5%; in [18], 12.2%; in test [15], 82.7%; in test [16] it was 29.6%; in [19] it was 31.6%.
`Cc1ccccc1C(=O)Nc1ccc(C(=O)N2CCCC(O)c3cc(Cl)ccc32)c(C)c1` (centres undefined): the inhibition in test [1] was 35.6%; in [2], 91.8%; in test [3], -6.43%; in [4], 88.5%; in [5], 21.9%; in test [6], 4.97%. Besides, the inhibition was 9.57% in test [7]; 9.21% in [8]; 14.4% in test [9]; 17.5% in test [10]; 12.2% in [11]; 74.7% in [12]. The inhibition in test [13] is 12.9%; in [14], 53.2%; in test [17], 28.2%; in test [18] it was 21%; in test [15] it was 8.81%; in [19], 78.3%.
